Each compound was assayed against T1, HDM2 (Homo sapiens, UniProt Q00987) (assay: HDM2 FRET assay (inhibition of binding of FITC labeled p53-pocket peptide to HDM2)). Settings: 0.5 nM HDM2 (residues 17 to 125), 3nM peptide, two hour incubation at room temperature; read-out: FRET IC50.
T1 construct: Thioredoxin (N); made in house; host or cells: E. coli strain BL21(DE3)Rosetta
Summary of the method: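 Signal is read as the 520/495 nm emission ratio and converted to percent inhibition; nonlinear sigmoidal regression yields IC50. The assay mixes HDM2 (0.5 nM), FITC-p53 peptide (3 nM) and Tb anti-His antibody (0.25 nM) at 0.1% DMSO.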

T1 sequence (Q00987 17-125): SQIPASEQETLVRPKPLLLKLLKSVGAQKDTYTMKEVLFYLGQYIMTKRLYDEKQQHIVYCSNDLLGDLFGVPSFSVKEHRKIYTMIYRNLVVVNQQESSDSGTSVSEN

SMILES	IC50
C[C@H]1CC[C@H](Cn2c(N3CCOC[C@H]3c3ccc(F)cc3)nc3nc(-c4noc(=O)[nH]4)nc(-c4cncc(Cl)c4)c32)CC1 [Example 16.93, 3-{6-(5-chloropyridin-3-yl)-8-[(3R)-3-(4-fluorophenyl)morpholin-4-yl]-7-[(trans-4-methylcyclohexyl)methyl]-7H-purin-2-yl}-1,2,4-oxadiazol-5(4H)-one]	1.37 nM
Cc1cccc(-c2nc(-c3noc(=O)[nH]3)nc3nc(N4CCOC[C@H]4c4ccccc4)n(C[C@H]4CC[C@H](C)CC4)c23)c1 [Example 16.17, 3-{7-[(trans-4-methylcyclohexyl)methyl]-6-(3-methylphenyl)-8-[(3R)-3-phenylmorpholin-4-yl]-7H-purin-2-yl}-1,2,4-oxadiazol-5(4H)-one]	3.96 nM
CC[C@H](Nc1nc2nc(-c3n[nH]c(=O)o3)nc(-c3cccc(Cl)c3)c2n1C[C@H]1CC[C@H](C)CC1)c1cccc(F)c1 [Example 16.76, 5-{6-(3-chlorophenyl)-8-{[(1S)-1-(3-fluorophenyl)propyl]amino}-7-[(trans-4-methylcyclohexyl)methyl]-7H-purin-2-yl}-1,3,4-oxadiazol-2(3H)-one]	13.2 nM
C[C@@H](Nc1nc(N2CCC[C@]2(C)C(=O)O)nc2nc(N3CCOC[C@H]3c3ccccc3)n(C[C@H]3CC[C@H](C)CC3)c12)C1CCC1 [Example 13.7, 1-(6-{[(1R)-1-cyclobutylethyl]amino}-7-[(trans-4-methylcyclohexyl)methyl]-8-[(3R)-3-phenylmorpholin-4-yl]-7H-purin-2-yl)-2-methyl-D-proline]	224 nM
C[C@H]1CC[C@H](Cn2c(N3CCOC[C@H]3c3ccccn3)nc3nc(-c4noc(=O)[nH]4)nc(-c4cccc(Cl)c4)c32)CC1 [Example 16.98, 3-{6-(3-chlorophenyl)-7-[(trans-4-methylcyclohexyl)methyl]-8-[(3R)-3-pyridin-2-ylmorpholin-4-yl]-7H-purin-2-yl}-1,2,4-oxadiazol-5(4H)-one]	1.61 nM
CCNC(=O)c1nc(N[C@H](C)C2CCC2)c2c(n1)nc(N1CCOC[C@H]1c1ccccc1)n2C[C@H]1CC[C@H](C)CC1 [Example 12.17, 6-{[(1R)-1-cyclobutylethyl]amino}-N-ethyl-7-[(trans-4-methylcyclohexyl)methyl]-8-[(3R)-3-phenylmorpholin-4-yl]-7H-purine-2-carboxamide]	1.63 nM
C[C@@H](Nc1nc(NCCO)nc2nc(N3CCOC[C@H]3c3ccccc3)n(C[C@H]3CC[C@H](C)CC3)c12)C1CCC1 [Example 13.1, 2-((6-(((R)-1-cyclobutylethyl)amino)-7-((trans-4-methylcyclohexyl)methyl)-8-((R)-3-phenylmorpholino)-7H-purin-2-yl)amino)ethanol]	885 nM
CC[S+]([O-])c1nc(N[C@H](C)C2CCC2)c2c(n1)nc(N1CCOC[C@H]1c1ccccc1)n2C[C@H]1CC[C@H](C)CC1 (stereo partly drawn) [Example 14.7, N-[(1R)-1-cyclobutylethyl]-2-(ethylsulfinyl)-7-[(trans-4-methylcyclohexyl)methyl]-8-[(3R)-3-phenylmorpholin-4-yl]-7H-purin-6-amine]	12.2 nM
C[C@@H]1COCCN1c1nc2nc(-c3noc(=O)[nH]3)nc(-c3cccc(Cl)c3)c2n1C[C@H]1CC[C@H](C)CC1 [Example 16.6, 3-(6-(3-chlorophenyl)-7-(((trans)-4-methylcyclohexyl)methyl)-8-((R)-3-methylmorpholino)-7H-purin-2-yl)-1,2,4-oxadiazol-5(4H)-one]	8.05 nM

Same assay, conditions: Table 6; read-out: FRET IC50

SMILES	IC50
Cc1cccc(-c2nc3nc(C(=O)O)nc(NC4CCC(C)CC4)c3n2Cc2ccc(C(F)(F)F)cc2)c1 (stereo not drawn) [Example 6.19, 6-[(4-methylcyclohexyl)amino]-8-(3-methylphenyl)-7-[4-(trifluoromethyl)benzyl]-7H-purine-2-carboxylic acid]	869 nM
Cc1cccc(-c2nc3nc(C(=O)O)nc(NC(C)C(C)(C)O)c3n2Cc2ccc(C(F)(F)F)cc2)c1 (stereo not drawn) [Example 6.39, 6-[(2-hydroxy-1,2-dimethylpropyl)amino]-8-(3-methylphenyl)-7-[4-(trifluoromethyl)benzyl]-7H-purine-2-carboxylic acid]	2260 nM
Cc1cccc(-c2nc3nc(C(=O)O)nc(N[C@@H](C4CC4)C(F)(F)F)c3n2Cc2ccc(C(F)(F)F)cc2)c1 [Example 6.53, 6-{[(1S)-1-cyclopropyl-2,2,2-trifluoroethyl]amino}-8-(3-methylphenyl)-7-[4-(trifluoromethyl)benzyl]-7H-purine-2-carboxylic acid]	419 nM
CCC(C)CN(C)c1nc(C(=O)O)nc2nc(-c3cccc(C)c3)n(Cc3ccc(C(F)(F)F)cc3)c12 (stereo not drawn) [Example 6.89, 6-[methyl(2-methylbutyl)amino]-8-(3-methylphenyl)-7-[4-(trifluoromethyl)benzyl]-7H-purine-2-carboxylic acid]	730 nM

Same assay, conditions: Table 9; read-out: FRET IC50

SMILES	IC50
COCC1CCCCN1c1nc2nc(-c3noc(=O)[nH]3)nc(N[C@H](C)C3CCC3)c2n1Cc1ccc(C(F)(F)F)cc1 (stereo partly drawn) [Example 9.111, 3-(6-{[(1R)-1-cyclobutylethyl]amino}-8-[2-(methoxymethyl)piperidin-1-yl]-7-[4-(trifluoromethyl)benzyl]-7H-purin-2-yl)-1,2,4-oxadiazol-5(4H)-one]	8.78 nM
CC(C)CC(=O)Nc1nc2nc(C(=O)O)nc(N[C@H](C)C3CCC3)c2n1Cc1ccc(C(F)(F)F)cc1 [Example 9.42, 6-{[(1R)-1-cyclobutylethyl]amino}-8-[(3-methylbutanoyl)amino]-7-[4-(trifluoromethyl)benzyl]-7H-purine-2-carboxylic acid]	324 nM

Same assay, conditions: Table 11; read-out: FRET IC50

SMILES	IC50
CC(C)CC1COCCN1c1nc2nc(-c3noc(=O)[nH]3)nc(N[C@H](C)C3CCC3)c2n1C[C@H]1CC[C@H](C)CC1 (stereo partly drawn) [Example 11.41, 3-(6-{[(1R)-1-cyclobutylethyl]amino}-7-[(trans-4-methylcyclohexyl)methyl]-8-[3-(2-methylpropyl)morpholin-4-yl]-7H-purin-2-yl)-1,2,4-oxadiazol-5(2H)-one]	14.7 nM
C[C@@H](Nc1nc(-c2noc(=O)[nH]2)nc2nc(N3CCCC3c3ccccc3)n(C[C@H]3CC[C@H](C)CC3)c12)C1CCC1 (single isomer, unassigned) [Example 11.135]	2.08 nM
COCC1COCCN1c1nc2nc(-c3noc(=O)[nH]3)nc(N[C@H](C)C3CCC3)c2n1C[C@H]1CC[C@H](C)CC1 (single isomer, unassigned) [Example 11.151]	20.9 nM
C[C@@H](Nc1nc(-c2noc(=O)[nH]2)nc2nc(N3CC4CC4C3C(F)(F)F)n(C[C@H]3CC[C@H](C)CC3)c12)C1CCC1 (stereo partly drawn) [Example 11.152, 3-(6-{[(1R)-1-cyclobutylethyl]amino}-7-[(trans-4-methylcyclohexyl)methyl]-8-[2-(trifluoromethyl)-3-azabicyclo[3.1.0]hex-3-yl]-7H-purin-2-yl)-1,2,4-oxadiazol-5(4H)-one]	3.09 nM
C[C@@H](Nc1nc(-c2noc(=O)[nH]2)nc2nc(N(C)Cc3ccon3)n(C[C@H]3CC[C@H](C)CC3)c12)C1CCC1 [Example 11.64, 3-(6-{[(1R)-1-cyclobutylethyl]amino}-8-[(isoxazol-3-ylmethyl)(methyl)amino]-7-[(trans-4-methylcyclohexyl)methyl]-7H-purin-2-yl)-1,2,4-oxadiazol-5(4H)-one]	5.77 nM

Same assay, conditions: Table 18; read-out: FRET IC50

SMILES	IC50
CCC1=CCC(Cn2c(-c3cc(C(C)C)ccn3)nc3nc(-c4noc(=O)[nH]4)nc(N[C@H](C)C4CCC4)c32)CC1 (stereo partly drawn) [Example 18.25, 3-(6-{[(1R)-1-cyclobutylethyl]amino}-7-[(4-ethylcyclohex-3-en-1-yl)methyl]-8-[4-(1-methylethyl)pyridin-2-yl]-7H-purin-2-yl)-1,2,4-oxadiazol-5(4H)-one]	44 nM
Cc1cccc(-c2nc3nc(C(=O)O)nc(N[C@H](C)C4CCC4)c3n2C[C@H]2CC[C@@H](C(F)(F)F)CC2)c1 [Example 18.29, 6-{[(1R)-1-cyclobutylethyl]amino}-8-(3-methylphenyl)-7-{[cis-4-(trifluoromethyl)cyclohexyl]methyl}-7H-purine-2-carboxylic acid]	677 nM

Same assay, conditions: Table 21; read-out: FRET IC50

SMILES	IC50
C[C@@H](Nc1nc(-c2n[nH]c(=O)o2)nc2nc(C3CCCCC3)n(C[C@H]3CC[C@H](C)CC3)c12)C1CCC1 [Example 21.40, 5-(6-{[(1R)-1-cyclobutylethyl]amino}-8-cyclohexyl-7-[(trans-4-methylcyclohexyl)methyl]-7H-purin-2-yl)-1,3,4-oxadiazol-2(3H)-one]	4.29 nM
C[C@@H](Nc1nc(C(=O)O)nc2nc(C3CCCCC3c3ccccc3)n(C[C@H]3CC[C@H](C)CC3)c12)C1CCC1 (stereo partly drawn) [Example 21.17, 6-{[(1R)-1-cyclobutylethyl]amino}-7-[(trans-4-methylcyclohexyl)methyl]-8-(2-phenylcyclohexyl)-7H-purine-2-carboxylic acid]	4.3 nM
C[C@@H](Nc1nc(C(=O)O)nc2nc(C3CCCC3c3ccccc3)n(Cc3ccc(C(F)(F)F)cc3)c12)C1CCC1 (single isomer, unassigned) [Example 21.6]	1.36 nM

Same assay, conditions: Table 22; read-out: FRET IC50

SMILES	IC50
C[C@@H](Nc1nc(-c2noc(=O)[nH]2)nc2nc(C(C)(O)c3nccs3)n(C[C@H]3CC[C@H](C)CC3)c12)C1CCC1 (stereo partly drawn) [Example 22.56, 3-(6-{[(1R)-1-cyclobutylethyl]amino}-8-[1-hydroxy-1-(1,3-thiazol-2-yl)ethyl]-7-[(trans-4-methylcyclohexyl)methyl] -7H-purin-2-yl)-1,2,4-oxadiazol-5(4H)-one]	2.45 nM

Same assay, conditions: read-out: inh. at 1000 nM (FRET)

SMILES	inhibition at 1 µM
Cc1cccc(-c2nc3nc(C(=O)O)nc(N(C)CC(C)C)c3n2Cc2ccc(C(F)(F)F)cc2)c1 [Example 6.72, 6-[methyl(2-methylpropyl)amino]-8-(3-methylphenyl)-7-[4-(trifluoromethyl)benzyl]-7H-purine-2-carboxylic acid]	40%
